Patent publication US9896448B2, “Pyrimido[4,5-b]quinoline-4,5(3H, 10H)-dione derivatives” (Novartis AG, priority 2014, dated 2018)

Key:
[1] = tested on: CFTR-Y122X; assay: CFTR-Y122X assay (dual reporter Hek293 cell lines, Renilla luminescence readthrough); assay type: cell-based, human; details: for Emax / AC50: nonsense mutation suppression, 24 h incubation, tested up to 100 μM; for Emax: 100% = 14 mM paromomycin, read-out: Amax; for AC50: Renilla luminescence
Text: In particular, compounds of formula (I) act as nonsense mutation suppressors on frequent PTCs, e.g. on Y122X in the mRNA of the cystic fibrosis conductance regulator protein (CFTR). This can be determined in vitro, for example, using cell lines expressing GFP-CFTR-Y122X-Renilla constructs as described herein.
Activity of compounds of the present invention was examined in recombinant, dual reporter isogenic Hek293 cell lines (“CFTR-Y122X assay”). The engineered reporter constructs contained the 18 bp sequence strech corresponding to a common Y122X PTC mutation in CFTR class I mutant patients (see Sermet-Gaudelus, BMC Medicine, 2007, 5(5)). Instead of a tyrosine (Y) in position 122 of the CFTR protein a TGA stop codon interrupts the open reading frame (Y122X) of the corresponding mRNA. This TGA stop codon triplet (followed by the pyrimidine base cytosine) is permissive to aminoglycoside mediated translational readthrough which served as positive control for high throughput screening. A corresponding TAA stop codon variant and a wildtype non mutated construct was used for confirmation and counter screening. The CFTR sequence was sandwitched between an eGFP reporter, and a triple myc tag sequence fused to a full length Renilla reporter. All sequences, including an intron containing one positioned pre-eGFP (b-globin intron) were cloned in frame. The corresponding expression constructs were stably expressed in the isogenic HEK-R4 cell host (Invitrogen Incorp.) and selected by blasticidin resistance. The isogenic integration of the construct minimizes gene dose effects and improves assay reproducibility. Stably integrated single cell derived clones were selected and characterized for aminoglycoside mediated readthrough. […] Readthrough of Y122X accumulates an intracellular localized fusion protein approximately 65.5 kDa in size as controlled by western blot analysis and immunofluorescence using an anti-renilla antibody. The eGFP reporter pre-PTC mutation serves as visual control for genetic stability of the screening clones and minimizes protein degradation of small fusion protein amounts. In the assay, compound concentration was 10 μM. In miniaturized 1536 well format 2000 cells were dispensed in 4 μl/well and incubated for 24 h at 37° C., 5% CO2. 40 nl compounds were placed on the cells with control wells containing 1 ul Paramomycin and 14.4 mM final concentration. Compounds were incubated for 24 h. Renilla Glo substrate (2.5 ul) was added and plates were centrifuged and processed for luminescence measurement using various readers. Activity calculation was done using the equation: A1(%)=100*(S−NC)/(AC−NC) where AC, NC and S correspond to active controls (injection of Stimulation buffer=100% stimulation), neutral controls (buffer injection which […]) and screening samples (S). NC corresponds to 0% activity whereas AC is 100% activity (14 mM paromomycin). False positive artefacts were removed in confirmation and validation screening using the same assay format followed by counterscreening using the respective wildtype construct (w/o PTC mutation) cell model. Compounds were tested up to 100 μM compound concentration.

[2] = tested on: alpha-L-Iduronidase W402X in Hurler patient derived fibroblast cells; assay: Hurler patient derived fibroblast cell cultures: restored alpha-L-iduronidase activity (W402X readthrough); assay type: cell-based; details: Homo sapiens, 192 h, 8 days incubation, highest concentration 20 uM; for Emax: 100% = 14 mM paromomycin, read-out: Amax
Text: Activity of compounds of the present invention was examined in patient derived fibroblast cells. The genotyped cells were derived from the Coriell Institute (#GM00798) and contain an in frame homozygous TGG to TAG change at nucleotide 1293 of exon 9 which results in a W402X mutation. The W402X mutation is one of the most common Hurler syndromes causing loss of function mutation. Between 60-70% of genotyped patients contain either the Q70X and/or the W402X in mutation and are classified as severe MPSI patients. This TAG stop codon triplet is permissive to aminoglycoside mediated translational readthrough which served as activity control for compound testing. Readthrough of W402X restores alpha-L-Iduronidase activity which results in removal of lysosomal accumulated Glycosaminoglycan's. Iduronidase expression could neither be detected by Taqman PCR© nor by enzyme activity or ELISA methods without compound stimulation. Compounds were tested in concentration response mode. Therefore 5000 patient cells/40 ul/well in 384 well plates were used. Compound dilutions were derived from freshly prepared 10 mM compound stock solutions. Highest concentration was 20 uM and subsequently diluted 1: 3.16 (8 point dilutions, n=4). Final DMSO concentration was below 0.5% and tested to be without effect on cell viability, growth and readthrough. Cells were incubated for 8 days with one cell media and compound exchange at day 3. Thereafter cell media was removed and cells were lysed (0.4 M Sodiumformate, 0.1% NaN3, 0.9% NaCl, 0.2% Triton, pH 3.5). Restored alpha-L-iduronidase activity in cell lysates was measured with the fluorescent 4-MU iduronide substrate (5 ul of 0.4 mM 4 Methylumbelliferyl alpha-L-iduronide/well) after 48 h incubation. Paromomycin was used as reference control (14 mM=100% control).

Structure (SMILES): CC(C)c1nc2c(c(=O)c3ccccc3n2C)c(=O)n1-c1cc[nH]n1 [Example 1.1, 2-isopropyl-10-methyl-3-(1H-pyrazol-3-yl)pyrimido[4,5-b]quinoline-4,5(3H,10H)-dione]
- Emax ([1]; Homo sapiens, HEK293): 14.8%
- AC50 ([1]; Homo sapiens, HEK293): 6.7 µM
- Emax [2]: 7%

Structure (SMILES): Cn1c2ccccc2c(=O)c2c(=O)n(-c3ccccn3)c(C3CCC3)nc21 [Example 1.8, 2-cyclobutyl-10-methyl-3-(pyridin-2-yl)pyrimido[4,5-b]quinoline-4,5(3H,10H)-dione]
- Emax ([1]; Homo sapiens, HEK293): 271%
- AC50 ([1]; Homo sapiens, HEK293): 4.8 µM
- Emax [2]: 184%
- AC50 ([2]; 8 point dilutions): 9.9 µM

Structure (SMILES): CCCc1nc2c(c(=O)c3ccccc3n2C)c(=O)n1-c1ccccn1 [Example 1.2, 10-methyl-2-propyl-3-(pyridin-2-yl)pyrimido[4,5-b]quinoline-4,5(3H,10H)-dione]
- Emax ([1]; Homo sapiens, HEK293): 235%
- AC50 ([1]; Homo sapiens, HEK293): 18 µM
- Emax [2]: 1%

Structure (SMILES): CCCc1nc2c(c(=O)c3ccccc3n2C)c(=O)n1-c1ccn(C)n1 [Example 1.3, 10-methyl-3-(1-methyl-1H-pyrazol-3-yl)-2-propylpyrimido[4,5-b]quinoline-4,5(3H,10H)-dione]
- Emax ([1]; Homo sapiens, HEK293): 202%
- AC50 ([1]; Homo sapiens, HEK293): 31.8 µM
- Emax [2]: 8%

Structure (SMILES): CC(C)c1nc2c(c(=O)c3ccccc3n2C)c(=O)n1-c1ccn(C)n1 [Example 1.4, 2-isopropyl-10-methyl-3-(1-methyl-1H-pyrazol-3-yl)pyrimido[4,5-b]quinoline-4,5(3H,10H)-dione]
- Emax ([1]; Homo sapiens, HEK293): 133%
- AC50 ([1]; Homo sapiens, HEK293): 13.6 µM
- Emax [2]: 21%

Structure (SMILES): NC[C@@H]1O[C@H](O[C@H]2[C@@H](O)[C@H](O[C@@H]3[C@@H](O)[C@H](N)C[C@H](N)[C@H]3O[C@H]3O[C@H](CO)[C@@H](O)[C@H](O)[C@H]3N)O[C@@H]2CO)[C@H](N)[C@@H](O)[C@@H]1O [paromomycin, reference compound]
- EC50 ([1]; Homo sapiens, HEK293, clone selected for HTS assay development, read-out: EC50 (response of selected clone to aminoglycoside mediated readthrough)): 1500 µM

Structure (SMILES): CC(C)c1nc2c(c(=O)c3ccccc3n2C)c(=O)n1-c1ccccn1 [Example 1.7, 2-isopropyl-10-methyl-3-(pyridin-2-yl)pyrimido[4,5-b]quinoline-4,5(3H,10H)-dione]
- Emax ([1]; Homo sapiens, HEK293): 164%
- AC50 ([1]; Homo sapiens, HEK293): 11.7 µM
- Emax [2]: 11%

Structure (SMILES): CC(C)c1nc2c(c(=O)c3ccccc3n2C)c(=O)n1-c1ccncc1 [Example 1.6, 2-isopropyl-10-methyl-3-(pyridin-4-yl)pyrimido[4,5-b]quinoline-4,5(3H,10H)-dione]
- Emax ([1]; Homo sapiens, HEK293): 14.9%
- AC50 ([1]; Homo sapiens, HEK293): 2.9 µM
- Emax [2]: 5%

Structure (SMILES): CC(C)c1nc2c(c(=O)c3ccccc3n2C)c(=O)n1-c1ccnn1C [2-isopropyl-10-methyl-3-(1-methyl-1H-pyrazol-5-yl)pyrimido[4,5-b]quinoline-4,5(3H,10H)-dione]
- suppression, % of paromomycin reference activity ([1]; at the above dose ranges (up to 100 μM), paromomycin reference = 100%): less than 5%

Structure (SMILES): CC(C)c1nc2c(c(=O)c3ccccc3n2C)c(=O)n1-c1ccsc1 [Example 1.5, 2-isopropyl-10-methyl-3-(thiophen-3-yl)pyrimido[4,5-b]quinoline-4,5(3H,10H)-dione]
- Emax ([1]; Homo sapiens, HEK293): 128%
- AC50 ([1]; Homo sapiens, HEK293): 12.3 µM
- Emax [2]: 5%
